“And” between values parts separate entries of the source, which are not always exact repeats. Equal values may be shown once. Toxic doses and inconclusive results are not listed.

We go through four compounds from PubChem BioAssay AID248 (DTP/NCI, 2004).

This experiment deals with L1210 leukemia ip in BDF1 mice, survival T/C. In words: NCI In Vivo Anticancer Drug Screen. Data for tumor model L1210 Leukemia (intraperitoneal) in B6D2F1 (BDF1) mice. To be noted: higher = longer survival. Put shortly:
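In this screen, tumor-bearing mice given compound are compared to those given vehicle, and their survival values are reported as a treated-to-control quotient.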

[1] abbreviates: endpoint: mean survival time, dose: 100.0 mg/kg/injection, schedule: Q04DX003 (ip), vehicle: Klucel (hydroxypropylcellulose) (HPC).

Regarding `COC(=O)Nc1nc2ccc(C(=O)c3cccs3)cc2[nH]1`, the T/C was 102 % of control (endpoint: mean survival time, dose: 10.0 mg/kg/injection, schedule: Q01DX009 (ip), vehicle: saline with Tween-80); 98 % of control (endpoint: mean survival time, dose: 10.0 mg/kg/injection, schedule: Q04DX003 (ip), vehicle: Klucel (hydroxypropylcellulose) (HPC)); 118 % of control (endpoint: mean survival time, dose: 20.0 mg/kg/injection, schedule: Q01DX009 (ip), vehicle: saline with Tween-80); 101 % of control (endpoint: mean survival time, dose: 20.0 mg/kg/injection, schedule: Q04DX003 (ip), vehicle: Klucel (hydroxypropylcellulose) (HPC)); 107 % of control (endpoint: mean survival time, dose: 40.0 mg/kg/injection, schedule: Q04DX003 (ip), vehicle: Klucel (hydroxypropylcellulose) (HPC)); 108 % of control and 111 % of control (endpoint: mean survival time, dose: 50.0 mg/kg/injection, schedule: Q04DX003 (ip), vehicle: Klucel (hydroxypropylcellulose) (HPC)). Besides, the T/C (endpoint: mean survival time, dose: 50.0 mg/kg/injection, schedule: Q04DX003 (ip), vehicle: saline with Tween-80) was 111 % of control; the T/C (endpoint: mean survival time, dose: 70.0 mg/kg/injection, schedule: Q04DX003 (ip), vehicle: other) was 157 % of control; the T/C (endpoint: mean survival time, dose: 75.0 mg/kg/injection, schedule: Q04DX003 (ip), vehicle: Klucel (hydroxypropylcellulose) (HPC)) is 111 % of control and 121 % of control; the T/C (endpoint: mean survival time, dose: 75.0 mg/kg/injection, schedule: Q04DX003 (ip), vehicle: other) was 117 % of control and 183 % of control and 210 % of control; the T/C (endpoint: mean survival time, dose: 80.0 mg/kg/injection, schedule: Q04DX003 (ip), vehicle: Klucel (hydroxypropylcellulose) (HPC)) is 94 % of control; the T/C (endpoint: mean survival time, dose: 80.0 mg/kg/injection, schedule: Q04DX003 (ip), vehicle: other) is 153 % of control. Also, the T/C runs as follows: (endpoint: mean survival time, dose: 100.0 mg/kg/injection, schedule: Q01DX009 (oral), vehicle: saline with Tween-80) 94 % of control; under setting [1], 115 % of control; (endpoint: mean survival time, dose: 100.0 mg/kg/injection, schedule: Q04DX003 (ip), vehicle: other) 114 % of control and 115 % of control and 89 % of control; (endpoint: mean survival time, dose: 100.0 mg/kg/injection, schedule: Q04DX003 (ip), vehicle: saline with Tween-80) 155 % of control and 170 % of control; (endpoint: mean survival time, dose: 150.0 mg/kg/injection, schedule: Q04DX003 (ip), vehicle: other) 104 % of control; (endpoint: mean survival time, dose: 160.0 mg/kg/injection, schedule: Q04DX003 (ip), vehicle: Klucel (hydroxypropylcellulose) (HPC)) 113 % of control. Further, the T/C is 96 % of control (endpoint: mean survival time, dose: 200.0 mg/kg/injection, schedule: Q01DX009 (oral), vehicle: saline with Tween-80); 104 % of control (endpoint: mean survival time, dose: 200.0 mg/kg/injection, schedule: Q04DX003 (oral), vehicle: saline with Tween-80); 100 % of control (endpoint: mean survival time, dose: 400.0 mg/kg/injection, schedule: Q01DX009 (oral), vehicle: saline with Tween-80); 97 % of control (endpoint: mean survival time, dose: 400.0 mg/kg/injection, schedule: Q04DX003 (oral), vehicle: saline with Tween-80); 104 % of control (endpoint: mean survival time, dose: 600.0 mg/kg/injection, schedule: Q04DX003 (oral), vehicle: saline with Tween-80); 89 % of control (endpoint: mean survival time, dose: 800.0 mg/kg/injection, schedule: Q04DX003 (oral), vehicle: saline with Tween-80). The T/C is, setting by setting: (endpoint: mean survival time, dose: 1600.0 mg/kg/injection, schedule: Q04DX003 (oral), vehicle: saline with Tween-80) 104 % of control; (endpoint: median survival time, dose: 5.0 mg/kg/injection, schedule: Q01DX009 (ip), vehicle: other) 101 % of control; (endpoint: median survival time, dose: 7.5 mg/kg/injection, schedule: Q03HX016 (ip), vehicle: other) 158 % of control; (endpoint: median survival time, dose: 7.5 mg/kg/injection, schedule: Q03HX024 (ip), vehicle: other) 164 % of control; (endpoint: median survival time, dose: 10.0 mg/kg/injection, schedule: Q01DX009 (ip), vehicle: other) 117 % of control and 120 % of control; (endpoint: median survival time, dose: 10.0 mg/kg/injection, schedule: Q03HX016 (ip), vehicle: other) 158 % of control. Besides, the T/C reads like this: (endpoint: median survival time, dose: 15.0 mg/kg/injection, schedule: Q03HX008 (ip), vehicle: other) 177 % of control; (endpoint: median survival time, dose: 15.0 mg/kg/injection, schedule: Q03HX024 (ip), vehicle: other) 88 % of control; (endpoint: median survival time, dose: 20.0 mg/kg/injection, schedule: Q01DX005 (ip), vehicle: other) 151 % of control; (endpoint: median survival time, dose: 20.0 mg/kg/injection, schedule: Q01DX009 (ip), vehicle: other) 121 % of control; (endpoint: median survival time, dose: 20.0 mg/kg/injection, schedule: Q08HX009 (ip), vehicle: other) 119 % of control; (endpoint: median survival time, dose: 30.0 mg/kg/injection, schedule: Q01DX005 (ip), vehicle: other) 153 % of control. Further, the T/C was 157 % of control (endpoint: median survival time, dose: 30.0 mg/kg/injection, schedule: Q01DX009 (ip), vehicle: other); 119 % of control (endpoint: median survival time, dose: 35.0 mg/kg/injection, schedule: Q04DX003 (ip), vehicle: Klucel (hydroxypropylcellulose) (HPC)); 123 % of control (endpoint: median survival time, dose: 35.0 mg/kg/injection, schedule: Q04DX003 (ip), vehicle: other); 104 % of control (endpoint: median survival time, dose: 40.0 mg/kg/injection, schedule: Q04DX003 (ip), vehicle: other); 86 % of control (endpoint: median survival time, dose: 50.0 mg/kg/injection, schedule: Q01DX005 (ip), vehicle: other); 103 % of control (endpoint: median survival time, dose: 50.0 mg/kg/injection, schedule: Q01DX009 (ip), vehicle: other). Further, the T/C is 119 % of control (endpoint: median survival time, dose: 50.0 mg/kg/injection, schedule: Q04DX003 (ip), vehicle: Klucel (hydroxypropylcellulose) (HPC)); 119 % of control (endpoint: median survival time, dose: 70.0 mg/kg/injection, schedule: Q04DX003 (ip), vehicle: Klucel (hydroxypropylcellulose) (HPC)); 101 % of control (endpoint: median survival time, dose: 75.0 mg/kg/injection, schedule: Q04DX003 (oral), vehicle: other); 157 % of control (endpoint: median survival time, dose: 80.0 mg/kg/injection, schedule: Q01DX001 (ip), vehicle: other); 182 % of control (endpoint: median survival time, dose: 80.0 mg/kg/injection, schedule: Q08DX002 (ip), vehicle: other); 167 % of control (endpoint: median survival time, dose: 90.0 mg/kg/injection, schedule: Q04DX003 (ip), vehicle: other). The T/C was 151 % of control (endpoint: median survival time, dose: 100.0 mg/kg/injection, schedule: Q01DX001 (ip), vehicle: other); 102 % of control (endpoint: median survival time, dose: 100.0 mg/kg/injection, schedule: Q01DX009 (oral), vehicle: other); 101 % of control (endpoint: median survival time, dose: 100.0 mg/kg/injection, schedule: Q04DX003 (iv), vehicle: other); 155 % of control (endpoint: median survival time, dose: 130.0 mg/kg/injection, schedule: Q01DX001 (ip), vehicle: other); 112 % of control (endpoint: median survival time, dose: 140.0 mg/kg/injection, schedule: Q08DX002 (ip), vehicle: other); 119 % of control (endpoint: median survival time, dose: 150.0 mg/kg/injection, schedule: Q04DX003 (oral), vehicle: other). Further, the T/C reads like this: (endpoint: median survival time, dose: 160.0 mg/kg/injection, schedule: Q08DX002 (ip), vehicle: other) 153 % of control; (endpoint: median survival time, dose: 200.0 mg/kg/injection, schedule: Q01DX009 (oral), vehicle: other) 103 % of control; (endpoint: median survival time, dose: 300.0 mg/kg/injection, schedule: Q01DX009 (oral), vehicle: other) 109 % of control; (endpoint: median survival time, dose: 300.0 mg/kg/injection, schedule: Q04DX003 (oral), vehicle: other) 98 % of control; (endpoint: median survival time, dose: 400.0 mg/kg/injection, schedule: Q01DX009 (oral), vehicle: other) 108 % of control; (endpoint: median survival time, dose: 400.0 mg/kg/injection, schedule: Q04DX003 (oral), vehicle: other) 102 % of control. In addition, the T/C runs as follows: (endpoint: median survival time, dose: 500.0 mg/kg/injection, schedule: Q04DX003 (oral), vehicle: other) 97 % of control; (endpoint: median survival time, dose: 600.0 mg/kg/injection, schedule: Q04DX003 (oral), vehicle: other) 104 % of control.

With `O=CN/N=C/c1c[nH]c(=O)[nH]c1=O`, the T/C was 101 % of control (endpoint: mean survival time, dose: 100.0 mg/kg/injection, schedule: Q01DX001 (ip), vehicle: saline); 106 % of control (endpoint: mean survival time, dose: 200.0 mg/kg/injection, schedule: Q01DX001 (ip), vehicle: saline); 95 % of control (endpoint: mean survival time, dose: 400.0 mg/kg/injection, schedule: Q01DX001 (ip), vehicle: saline).

With `Cc1cccc(Nc2c3ccccc3nc3ccccc23)c1`, the T/C is 97 % of control (endpoint: mean survival time, dose: 25.0 mg/kg/injection, schedule: Q01DX001 (ip), vehicle: saline with Tween-80); 100 % of control (endpoint: mean survival time, dose: 50.0 mg/kg/injection, schedule: Q01DX001 (ip), vehicle: saline with Tween-80); 104 % of control (endpoint: mean survival time, dose: 100.0 mg/kg/injection, schedule: Q01DX001 (ip), vehicle: saline with Tween-80).

As for `CC(=O)Nc1ccc(SCCCc2c(N)nc(N)nc2N)cc1`, the T/C by setting is: under setting [1], 100 % of control; (endpoint: mean survival time, dose: 200.0 mg/kg/injection, schedule: Q04DX003 (ip), vehicle: Klucel (hydroxypropylcellulose) (HPC)) 99 % of control; (endpoint: mean survival time, dose: 400.0 mg/kg/injection, schedule: Q04DX003 (ip), vehicle: Klucel (hydroxypropylcellulose) (HPC)) 97 % of control.
